Source: patent US9162992B2, “Compounds and compositions for treatment of breathing control disorders or diseases” (GALLEON PHARMACEUTICALS, INC., priority 2010, dated 2015)

Key:
[1] = tested on: spontaneously breathing rats; assay: Minute ventilation (MV) and cardiovascular parameters in naive rats; format: in vivo, rat; set-up: unit not given here
How it was run: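 Isoflurane-anesthetized rats, intubated and breathing spontaneously at 1.5% isoflurane, received compounds IV, typically 1 mpk, via femoral vein. Minute ventilation recorded as maximum peak response and change versus baseline. Mean arterial pressure and heart rate were monitored through a femoral arterial catheter.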

[2] = Stability as a function of pH 2-6 (1 mg/mL, 0.25 mg/mL at pH 6; 10 mM citric acid and glycine); format: physicochemical; set-up: growth in impurities / Assay: unit not given here; conditions: for Impurities: in %
Description: Buffer solutions containing ca. 10 mM each of citric acid and glycine in the pH range 2-6 were prepared by titrating 250 mL of a single stock containing both buffer agents with 1N NaOH/1N HCl and removing 50 mL aliquots at predetermined pH values. XXXVI solutions at 1 mg/mL were prepared in buffers of pH 2-5 by dissolving ˜25 mg of XXXVI in ˜23 mL of a given buffer, adjusting the pH to the target and making up the volume to 25.0 mL in a volumetric flask. (XXXVI) solution at pH 6 was prepared similarly, but at a lower drug concentration of 0.25 mg/mL using 6.68 mg of (XXXVI).
Each of the buffered XXXV solutions was filtered through a 0.2 μm polyether sulfone syringe filter into a volumetric flask, which had been previously rinsed with 70% ethanol and dried in a laminar flow hood. Following filtration, each buffered (XXXV) solution was split into 10 aliquots (9 aliquots of 2.5 mL each and 1 aliquot of 2 mL) in 5 mL serum vials previously rinsed with 70% ethanol and dried in a laminar flow hood. Filtration and preparation of aliquots were performed in a laminar flow hood. The 2 mL aliquot of each buffered (XXXV) solution was submitted for T0 analysis (HPLC assay and related substances).
Of the nine 2.5 mL aliquots, three aliquots were stored at each 40° C. and 60° C., two aliquots were stored at 25° C. and one aliquot was stored at −70° C. Samples stored at 40° C. and at 60° C. were evaluated for physical appearance, pH, assay and related substances after 1 week, 2 weeks and 4 weeks of storage. Samples at 25° C. and −70° C. served as controls to be analyzed if necessary.

[3] = 1 mpk IV, 15% DMA 85% D5W, pH 5-6
[4] = Table 8, 1 mpk, 20% HPβCD, pH 5

For `CCCNc1nc(NCCC)nc(N(C)OC)n1` [XXXV, N-(4,6-Bis-n-propylamino-[1,3,5]triazin-2-yl)-N,O-dimethyl-hydroxylamine], the “MV MPR” value [1, 3] was 207, the “MV ΔMV” value [1, 3] was 135 and the “MV MPR” value ([1]; 1 mpk IV, 20% HPβCD, pH 4-5) was 344. For the same molecule, the “MV ΔMV” value ([1]; 1 mpk IV, 20% HPβCD, pH 4-5) was 210, the “MV DMV” value [1, 4] was 164 and the “MV MPR” value [1, 4] was 267. For the same molecule, the physical appearance ([2]; all samples, up to 4 weeks at 40° C. and 60° C.) was “remained clear, colorless and particle free”, the “stability at pH 2 compared to remaining pH values” ([2]; assay and impurities data) was “significantly less stable at pH 2” and the growth in impurities ([2]; pH 3-6, 40° C. and 60° C.) was greater than 0.2. The Assay ([2]; target pH 2, 40° C. 1 wk) was 0.997, the pH ([2]; target pH 2, 40° C. 1 wk) was 2.02 and the Impurities ([2]; target pH 2, 40° C. 1 wk) was 0.58. For the same molecule, the Assay ([2]; target pH 2, 40° C. 2 wk) was 0.975, the pH ([2]; target pH 2, 40° C. 2 wk) was 1.98 and the Impurities ([2]; target pH 2, 40° C. 2 wk) was 1.48. For the same molecule, the Assay ([2]; target pH 2, 40° C. 4 wk) was 0.970, the pH ([2]; target pH 2, 40° C. 4 wk) was 2.00 and the Impurities ([2]; target pH 2, 40° C. 4 wk) was 2.49. For the same molecule, the Assay ([2]; target pH 2, 60° C. 1 wk) was 0.929, the pH ([2]; target pH 2, 60° C. 1 wk) was 2.00 and the Impurities ([2]; target pH 2, 60° C. 1 wk) was 3.83. It also gave an Assay ([2]; target pH 2, 60° C. 2 wk) of 0.754, a pH ([2]; target pH 2, 60° C. 2 wk) of 1.99 and an Impurities ([2]; target pH 2, 60° C. 2 wk) of 9.89. The Assay ([2]; target pH 2, 60° C. 4 wk) was 0.754, the pH ([2]; target pH 2, 60° C. 4 wk) was 2.01 and the Impurities ([2]; target pH 2, 60° C. 4 wk) was 14.34. It also gave an Assay ([2]; target pH 2, initial) of 1.02, a pH ([2]; target pH 2, initial) of 1.96 and an Assay ([2]; target pH 3, 40° C. 1 wk) of 0.984. For the same molecule, the pH ([2]; target pH 3, 40° C. 1 wk) was 3.05, the Assay ([2]; target pH 3, 40° C. 2 wk) was 0.987 and the pH ([2]; target pH 3, 40° C. 2 wk) was 3.05. It also gave an Impurities ([2]; target pH 3, 40° C. 2 wk) of 0.19, an Assay ([2]; target pH 3, 40° C. 4 wk) of 0.991 and a pH ([2]; target pH 3, 40° C. 4 wk) of 3.06. For the same molecule, the Impurities ([2]; target pH 3, 40° C. 4 wk) was 0.41, the Assay ([2]; target pH 3, 60° C. 1 wk) was 0.971 and the pH ([2]; target pH 3, 60° C. 1 wk) was 3.07. It also gave an Impurities ([2]; target pH 3, 60° C. 1 wk) of 0.71, an Assay ([2]; target pH 3, 60° C. 2 wk) of 0.952 and a pH ([2]; target pH 3, 60° C. 2 wk) of 3.03. The Impurities ([2]; target pH 3, 60° C. 2 wk) was 1.20, the Assay ([2]; target pH 3, 60° C. 4 wk) was 0.952 and the pH ([2]; target pH 3, 60° C. 4 wk) was 3.07. The Impurities ([2]; target pH 3, 60° C. 4 wk) was 2.19, the Assay ([2]; target pH 3, initial) was 0.984 and the pH ([2]; target pH 3, initial) was 3.02. For the same molecule, the Assay ([2]; target pH 4, 40° C. 1 wk) was 0.999, the pH ([2]; target pH 4, 40° C. 1 wk) was 3.94 and the Assay ([2]; target pH 4, 40° C. 2 wk) was 1.006. The pH ([2]; target pH 4, 40° C. 2 wk) was 3.96, the Impurities ([2]; target pH 4, 40° C. 2 wk) was 0.17 and the Assay ([2]; target pH 4, 40° C. 4 wk) was 1.012. For the same molecule, the pH ([2]; target pH 4, 40° C. 4 wk) was 3.96, the Impurities ([2]; target pH 4, 40° C. 4 wk) was 0.22 and the Assay ([2]; target pH 4, 60° C. 1 wk) was 0.992. The pH ([2]; target pH 4, 60° C. 1 wk) was 3.94, the Assay ([2]; target pH 4, 60° C. 2 wk) was 0.979 and the pH ([2]; target pH 4, 60° C. 2 wk) was 3.96. It also gave an Impurities ([2]; target pH 4, 60° C. 2 wk) of 0.52, an Assay ([2]; target pH 4, 60° C. 4 wk) of 0.979 and a pH ([2]; target pH 4, 60° C. 4 wk) of 3.97. It also gave an Impurities ([2]; target pH 4, 60° C. 4 wk) of 1.02, an Assay ([2]; target pH 4, initial) of 1.01 and a pH ([2]; target pH 4, initial) of 4.00. The Assay ([2]; target pH 5, 40° C. 1 wk) was 0.989, the pH ([2]; target pH 5, 40° C. 1 wk) was 4.90 and the Assay ([2]; target pH 5, 40° C. 2 wk) was 0.992. It also gave a pH ([2]; target pH 5, 40° C. 2 wk) of 4.95, an Impurities ([2]; target pH 5, 40° C. 2 wk) of 0.26 and an Assay ([2]; target pH 5, 40° C. 4 wk) of 0.977. The pH ([2]; target pH 5, 40° C. 4 wk) was 4.97, the Assay ([2]; target pH 5, 60° C. 1 wk) was 0.977 and the pH ([2]; target pH 5, 60° C. 1 wk) was 4.92. For the same molecule, the Assay ([2]; target pH 5, 60° C. 2 wk) was 0.947, the pH ([2]; target pH 5, 60° C. 2 wk) was 4.93 and the Impurities ([2]; target pH 5, 60° C. 2 wk) was 0.62. For the same molecule, the Assay ([2]; target pH 5, 60° C. 4 wk) was 0.947, the pH ([2]; target pH 5, 60° C. 4 wk) was 4.98 and the Impurities ([2]; target pH 5, 60° C. 4 wk) was 1.10. The Assay ([2]; target pH 5, initial) was 1.01, the pH ([2]; target pH 5, initial) was 5.03 and the Assay ([2]; target pH 6, 40° C. 1 wk) was 0.257. The pH ([2]; target pH 6, 40° C. 1 wk) was 5.88, the Assay ([2]; target pH 6, 40° C. 2 wk) was 0.253 and the pH ([2]; target pH 6, 40° C. 2 wk) was 6.02. The Impurities ([2]; target pH 6, 40° C. 2 wk) was 0.25, the Assay ([2]; target pH 6, 40° C. 4 wk) was 0.251 and the pH ([2]; target pH 6, 40° C. 4 wk) was 5.98. The Impurities ([2]; target pH 6, 40° C. 4 wk) was 0.28, the Assay ([2]; target pH 6, 60° C. 1 wk) was 0.247 and the pH ([2]; target pH 6, 60° C. 1 wk) was 5.87. The Impurities ([2]; target pH 6, 60° C. 1 wk) was 0.56, the Assay ([2]; target pH 6, 60° C. 2 wk) was 0.234 and the pH ([2]; target pH 6, 60° C. 2 wk) was 6.03. It also gave an Impurities ([2]; target pH 6, 60° C. 2 wk) of 0.87, an Assay ([2]; target pH 6, 60° C. 4 wk) of 0.234 and a pH ([2]; target pH 6, 60° C. 4 wk) of 6.01. The Impurities ([2]; target pH 6, 60° C. 4 wk) was 1.65, the Assay ([2]; target pH 6, initial) was 0.260 and the pH ([2]; target pH 6, initial) was 6.05.
